Earlier results, collected in patent US8211842B2, “Preventive and/or curative agent for cleaning materials that are brought into contact with water” (priority 2006, dated 2012).

Key:
Details in all cases: standard AFNOR NF T 72-151
[1] = system: Pseudomonas aeruginosa A22
Escherichia coli 54127 = system: Escherichia coli 54127
[2] = system: Streptococcus faecalis 5855
[3] = system: Mycobactenum smegmatis 7326
[4] = system: Staphylococcus aureus 53164

Measured: dose effective as a bactericide

CCCCCCCCCC[N+](C)(C)CCCCCCCCCC.[Cl-] [didecyl dimethylammonium chloride]
50 ppm: all assays above
